According to US20250144067A1, “PERSONALIZED STARVATION THERAPY FOR CANCER” (Faeth Therapeutics, Inc., priority 2021, published 2025):
Structures can show the parent of a compound that is named as a salt. Where two headings read alike, the source gives them in different places.

Assays:
[1] = system: NCI-H292 lung cancer cells; assay: FDA drug screening, complete media vs cholesterol-free media without statin (TABLE 1); format: cell-based, human
[2] = system: NCI-H292 lung cancer cells; assay: FDA drug screening, complete media vs cholesterol-free media with simvastatin (TABLE 2); format: cell-based, human
[3] = NCI-H292 cells, cholesterol-free media without statin
[4] = complete vs cholesterol-free media, greater than 0 enhanced anti-cancer activity, about 0 neutral, below 0 antagonists
[5] = NCI-H292 cells, FDA library drug in cholesterol-free media with simvastatin 0.04 μM
[6] = NCI-H292 cells, FDA library drug in complete media
[7] = complete media vs cholesterol-free media + simvastatin (0.04 μM), >0 enhanced anti-cancer activity, about 0 neutral, <0 antagonist
[8] = Complete minus Cholesterol-free, >0 enhanced anti-cancer activity, about 0 neutral, <0 antagonist
[9] = NCI-H292 cells, drug in cholesterol-free media with simvastatin 0.04 μM
[10] = NCI-H292 cells, drug in complete media
[11] = Complete minus Cholesterol-free, […]
[12] = NCI-H292 cells in cholesterol-free media without statin
[13] = NCI-H292 cells in complete media
[14] = complete media vs cholesterol-free media + simvastatin (0.04 μM), […]
[15] = NCI-H292 cells, FDA drug library screen, cholesterol-free media with simvastatin 0.04 μM
[16] = NCI-H292 cells, FDA drug library screen, complete media
[17] = Complete minus Cholesterol-free, greater than 0 enhanced anti-cancer activity, about 0 neutral, below 0 antagonists
[18] = NCI-H292 cells, cholesterol-free media with simvastatin 0.04 μM, cell growth value in FDA drug screen
[19] = NCI-H292 cells, complete media, cell growth value in FDA drug screen
[20] = complete media minus cholesterol-free media + simvastatin, >0 enhanced anti-cancer activity, about 0 neutral, <0 antagonist
[21] = NCI-H292 cells, cholesterol-free media without statin, FDA drug library screen
[22] = NCI-H292 cells, complete media, FDA drug library screen
[23] = Complete minus Cholesterol-free, greater than 0 enhanced anti-cancer activity, about 0 neutral, below 0 antagonist
[24] = NCI-H292 cells, FDA drug library screen, cholesterol-free media without statin
[25] = NCI-H292 cells, cholesterol-free media with simvastatin 0.04 μM, FDA drug library screen (TABLE 2)
[26] = NCI-H292 cells, complete media, FDA drug library screen (TABLE 2)
[27] = complete media minus cholesterol-free media + simvastatin (0.04 μM), >0 enhanced anti-cancer activity, about 0 neutral, <0 antagonist

CC(C)n1nccc1-c1ncccc1COc1cccc(O)c1C=O [Voxelotor]
Cholesterol-free [1, 3]: 1.146 | Complete ([1]; NCI-H292 cells, complete media): 0.7013 | Difference [1, 4]: −0.44 | Cholesterol-free media + simvastatin (0.04 μM) [2, 5]: 1.853 | Complete Media [2, 6]: 1.475 | Difference [2, 7]: −0.38

OC[C@@H](O)[C@H](O)[C@@H](O)CO [Xylitol]
Difference [1, 8]: −0.26 | Cholesterol-free [1, 3]: 1.384 | Complete ([1]; NCI-H292 cells, complete media): 1.123 | Cholesterol-free media + simvastatin (0.04 μM) [2, 9]: 1.234 | Complete Media [2, 10]: 1.073 | Difference [2, 7]: −0.16

Cc1cc(C(C)(C)C)cc(C)c1CC1=NCCN1 [Xylometazoline (hydrochloride)]
Difference [1, 11]: −0.59 | Cholesterol-free [1, 12]: 1.406 | Complete [1, 13]: 0.8153 | Cholesterol-free media + simvastatin (0.04 μM) [2, 5]: 1.159 | Complete Media [2, 6]: 0.7803 | Difference [2, 14]: −0.38

O=C[C@H](O)[C@@H](O)[C@H](O)CO [Xylose]
Cholesterol-free [1, 3]: 1.238 | Complete ([1]; NCI-H292 cells, complete media): 0.9044 | Difference [1, 4]: −0.33 | Cholesterol-free media + simvastatin (0.04 μM) [2, 15]: 1.188 | Complete Media [2, 16]: 1.083 | Difference [2, 7]: −0.11

COC(=O)[C@@H]1[C@H]2C[C@H]3c4[nH]c5ccccc5c4CCN3C[C@@H]2CC[C@@H]1O [Yohimbine (Hydrochloride)]
Difference [1, 17]: −0.74 | Cholesterol-free [1, 12]: 1.558 | Complete [1, 13]: 0.818 | Cholesterol-free media + simvastatin (0.04 μM) [2, 18]: 1.051 | Complete Media [2, 19]: 1.067 | Difference [2, 20]: 0.02

COc1cc(C(=O)NS(=O)(=O)c2ccccc2C)ccc1Cc1cn(C)c2ccc(NC(=O)OC3CCCC3)cc12 [Zafirlukast]
Difference [1, 8]: 0.05 | Cholesterol-free [1, 21]: 0.8473 | Complete [1, 22]: 0.9001 | Cholesterol-free media + simvastatin (0.04 μM) [2, 15]: 1.598 | Complete Media [2, 16]: 1.505 | Difference [2, 7]: −0.09

Nc1ccn([C@H]2CC[C@@H](CO)O2)c(=O)n1 [Zalcitabine]
Difference [1, 8]: −0.22 | Cholesterol-free [1, 3]: 1.156 | Complete ([1]; NCI-H292 cells, complete media): 0.9405 | Cholesterol-free media + simvastatin (0.04 μM) [2, 18]: 1.825 | Complete Media [2, 19]: 1.89 | Difference [2, 20]: 0.06

CC(C(=O)O)c1ccc2c(c1)CC(=O)c1ccccc1S2 (centres unmarked) [Zaltoprofen]
Difference [1, 23]: −0.13 | Cholesterol-free [1, 24]: 1.151 | Complete [1, 16]: 1.025 | Cholesterol-free media + simvastatin (0.04 μM) [2, 5]: 1.283 | Complete Media [2, 6]: 0.7256 | Difference [2, 7]: −0.56

CC(=O)N[C@H]1[C@H]([C@H](O)[C@H](O)CO)OC(C(=O)O)=C[C@@H]1N=C(N)N [Zanamivir]
Difference [1, 17]: −0.85 | Cholesterol-free [1, 12]: 1.947 | Complete [1, 13]: 1.097 | Cholesterol-free media + simvastatin (0.04 μM) [2, 9]: 1.295 | Complete Media [2, 10]: 1.107 | Difference [2, 7]: −0.19

C=CC(=O)N1CCC([C@@H]2CCNc3c(C(N)=O)c(-c4ccc(Oc5ccccc5)cc4)nn32)CC1 [Zanubrutinib]
Cholesterol-free [1, 3]: 0.7894 | Complete ([1]; NCI-H292 cells, complete media): 0.3496 | Difference [1, 4]: −0.44 | Cholesterol-free media + simvastatin (0.04 μM) [2, 25]: 0.7245 | Complete Media [2, 26]: 0.7031 | Difference [2, 27]: −0.02

Cc1cn([C@H]2C[C@H](N=[N+]=[N-])[C@@H](CO)O2)c(=O)[nH]c1=O [Zidovudine]
Difference [1, 8]: −0.01 | Cholesterol-free [1, 21]: 1.211 | Complete [1, 22]: 1.205 | Cholesterol-free media + simvastatin (0.04 μM) [2, 5]: 1.856 | Complete Media [2, 6]: 1.268 | Difference [2, 7]: −0.59

CC(c1cc2ccccc2s1)N(O)C(N)=O (centres unmarked) [Zileuton]
Difference [1, 8]: −0.21 | Cholesterol-free [1, 3]: 1.451 | Complete ([1]; NCI-H292 cells, complete media): 1.238 | Cholesterol-free media + simvastatin (0.04 μM) [2, 9]: 1.302 | Complete Media [2, 10]: 1.066 | Difference [2, 7]: −0.24

[O-][n+]1ccccc1[S-].[O-][n+]1ccccc1[S-].[Zn+2] [Zinc Pyrithione]
Cholesterol-free [1]: 0.0139 | Complete [1]: 0.007475 | Difference [1]: −0.01 | Cholesterol-free media + simvastatin (0.04 μM) [2]: 0.004251 | Complete Media [2]: −0.04835 | Difference [2]: −0.05

O=C1Cc2cc(CCN3CCN(c4nsc5ccccc45)CC3)c(Cl)cc2N1 [Ziprasidone (hydrochloride monohydrate)]
Cholesterol-free [1, 21]: 0.5848 | Complete [1, 22]: 0.8552 | Difference ([1]; complete vs cholesterol-free media, >0 enhanced anti-cancer activity, about 0 neutral, <0 antagonist): 0.27 | Cholesterol-free media + simvastatin (0.04 μM) [2, 18]: 0.5734 | Complete Media [2, 19]: 0.6228 | Difference [2, 20]: 0.05

O=C1Cc2cc(CCN3CCN(c4nsc5ccccc45)CC3)c(Cl)cc2N1 [Ziprasidone]
Difference [1, 17]: −0.52 | Cholesterol-free [1, 12]: 1.408 | Complete [1, 13]: 0.89 | Cholesterol-free media + simvastatin (0.04 μM) [2, 18]: 0.9155 | Complete Media [2, 19]: 0.9832 | Difference [2, 20]: 0.07

C[C@H](CSC(=O)c1ccccc1)C(=O)N1C[C@@H](Sc2ccccc2)C[C@H]1C(=O)O [Zofenopril (calcium)]
Difference [1, 11]: −0.03 | Cholesterol-free [1, 21]: 1.281 | Complete [1, 22]: 1.25 | Cholesterol-free media + simvastatin (0.04 μM) [2, 25]: 0.8443 | Complete Media [2, 26]: 0.8399 | Difference ([2]; complete media minus cholesterol-free media + simvastatin (0.04 μM), […]): 0.00

O=P(O)(O)C(O)(Cn1ccnc1)P(=O)(O)O [Zoledronic acid (monohydrate)]
Difference [1, 8]: −0.23 | Cholesterol-free [1, 3]: 1.033 | Complete ([1]; NCI-H292 cells, complete media): 0.8069 | Cholesterol-free media + simvastatin (0.04 μM) [2, 15]: 0.7262 | Complete Media [2, 16]: 0.8945 | Difference [2, 20]: 0.17

NS(=O)(=O)Cc1noc2ccccc12 [Zonisamide]
Difference [1, 17]: −0.51 | Complete [1, 13]: 1.109 | Cholesterol-free media + simvastatin (0.04 μM) [2, 9]: 1.285 | Complete Media [2, 10]: 1.066 | Difference [2, 7]: −0.22

COc1cc2c3cc1Oc1c(OC)c(OC)cc4c1[C@@H](Cc1ccc(O)c(c1)Oc1ccc(cc1)C[C@@H]3N(C)CC2)N(C)CC4 [berbamine, reference compound]
Cholesterol-free ([1]; NCI-H292 cells, cholesterol-free media without statin, listed as Berbamine): 1.275 | Complete ([1]; NCI-H292 cells, complete media, listed as Berbamine): 0.9674 | Difference ([1]; complete vs cholesterol-free media, […], listed as Berbamine): −0.31 | Cholesterol-free media + simvastatin (0.04 μM) ([2]; NCI-H292 cells, FDA drug library screen, cholesterol-free media with simvastatin 0.04 μM, listed as Berbamine): 0.4924 | Complete Media ([2]; NCI-H292 cells, FDA drug library screen, complete media, listed as Berbamine): 1.667 | Difference ([2]; complete media minus cholesterol-free media + simvastatin, […], listed as Berbamine): 1.17

COc1ccc2cc1Oc1ccc(cc1)C[C@H]1c3c(cc4c(c3Oc3cc5c(cc3OC)CCN(C)[C@@H]5C2)OCO4)CCN1C [cepharanthine, reference compound]
Difference [1, 8]: 0.04 | Cholesterol-free [1, 21]: 1.12 | Complete [1, 22]: 1.159 | Cholesterol-free media + simvastatin (0.04 μM) [2, 15]: 0.1249 | Complete Media [2, 16]: 1.4 | Difference [2, 20]: 1.27

O[C@H]1[C@H](O)[C@@H](O)[C@H](O)[C@@H](O)[C@H]1O [i-Inositol]
Difference [1, 8]: −0.01 | Cholesterol-free [1, 21]: 1.553 | Complete [1, 22]: 1.54 | Cholesterol-free media + simvastatin (0.04 μM) [2, 25]: 0.9949 | Complete Media [2, 26]: 0.9333 | Difference [2, 27]: −0.06

C[N+](C)(C)CCOP(=O)([O-])OC[C@H](O)CO [sn-Glycero-3-phosphocholine]
Difference [1, 23]: −0.10 | Cholesterol-free [1, 24]: 0.9108 | Complete [1, 16]: 0.8124 | Cholesterol-free media + simvastatin (0.04 μM) [2, 5]: 0.9593 | Complete Media [2, 6]: 0.5999 | Difference [2, 7]: −0.36

COc1ccc(/C=C/C(=O)Nc2ccccc2C(=O)O)cc1OC [trans-Tranilast]
Difference [1, 11]: −0.10 | Complete [1, 16]: 0.8406 | Cholesterol-free media + simvastatin (0.04 μM) [2, 9]: 1.144 | Complete Media [2, 10]: 0.9085 | Difference [2, 14]: −0.24

O=C(O)CCCCC1CCSS1 (stereo not drawn) [α-Lipoic Acid]
Difference [1, 23]: −0.15 | Cholesterol-free [1, 24]: 1.192 | Complete [1, 16]: 1.044 | Cholesterol-free media + simvastatin (0.04 μM) [2, 15]: 1.116 | Complete Media [2, 16]: 1.004 | Difference [2, 7]: −0.11

Cc1c(C)c2c(c(C)c1O)CC[C@@](C)(CCC[C@H](C)CCC[C@H](C)CCCC(C)C)O2 [α-Vitamin E]
Cholesterol-free [1, 3]: 1.5 | Complete ([1]; NCI-H292 cells, complete media): 1.082 | Difference [1, 4]: −0.42 | Cholesterol-free media + simvastatin (0.04 μM) [2, 5]: 1.493 | Complete Media [2, 6]: 0.9076 | Difference [2, 7]: −0.59

CC1=C(/C=C/C(C)=C/C=C/C(C)=C/C=C/C=C(C)/C=C/C=C(C)/C=C/C2=C(C)CCCC2(C)C)C(C)(C)CCC1 [β-Carotene]
Difference [1, 17]: −0.67 | Cholesterol-free [1, 12]: 1.322 | Complete [1, 13]: 0.6506 | Cholesterol-free media + simvastatin (0.04 μM) [2, 5]: 0.923 | Complete Media [2, 6]: 0.6081 | Difference [2, 7]: −0.31

C=C1CCC2CC1C2(C)C (stereo not drawn) [β-Pinene]
Difference [1, 8]: −0.30 | Cholesterol-free [1, 3]: 0.968 | Complete ([1]; NCI-H292 cells, complete media): 0.6726 | Cholesterol-free media + simvastatin (0.04 μM) [2, 9]: 1.724 | Complete Media [2, 10]: 1.464 | Difference [2, 7]: −0.26

(+)-Catechin hydrate
Difference [1, 8]: 0.05 | Difference [2, 27]: −0.05

(S)-Flurbiprofen
Difference [1, 17]: −0.56 | Cholesterol-free [1, 12]: 1.504 | Complete [1, 13]: 0.9454 | Cholesterol-free media + simvastatin (0.04 μM) [2, 5]: 1.832 | Difference [2, 7]: −0.79
